“Also recorded” adds a separate entry of the source.
Columns and labels:
DUSP6 / cold microbiota = test: 16S rRNA microbiota analysis of BCI-CR versus Vehicle-CR mice (cold-room temperature transition); type: in vivo; conditions: during the cold-RT transition, BCI-CR vs Vehicle-CR, 16S rRNA sequencing
Description: FIG. 1B illustrates the cold induced gut bacteria that is regulated by DUSP6 inhibition by injecting DUSP6 inhibitor, (E/Z)-BCI hydrochloride, into the mice underwent cold-room temperature (CR) transition.
To search the potential Nε-Methyl-L-lysine producers in cold microbiota, we performed the microbiota analysis on 16S rRNA sequencing data of BCI-CR and Vehicle-CR microbiota.

[1] = system: adipocytes of pWAT and iWAT; test: Histological examination of pWAT and iWAT (H&E, Adiposoft adipocyte area and size distribution); type: in vivo, male C57BL/6J mice; conditions: vs vehicle
Protocol: (§1) Tissues were fixed in 4% neutral-buffered formalin (Sigma), paraffin-embedded, sectioned, and stained with hematoxylin and eosin (H&E) or subjected to immunohistochemistry analysis. For adipose tissue, the 5 μm FFPE sections of pWAT and iWAT were deparaffinated and stained with H&E. The mean adipocyte area and adipocyte size distribution were determined by using Adiposoft software. For quantifying lipid droplets in liver tissues, the 5 μm FFPE liver sections were deparaffinated and stained with H&E. The mean lipid droplets area was determined by using Image J software.

[2] = system: CDAHFD-induced NASH and liver fibrosis; test: NASH and liver fibrosis test (CDAHFD-fed mice); type: in vivo, male C57BL/6J mice
Protocol: as §1
Groups of 6-week-old male C57BL/6J mice were fed in choline-deficient, L-amino acid-defined, high-fat diet (CDAHFD; #A06071302) purchased from Research Diets (New Brunswick, NJ, USA) or chow diet for 4 weeks. After two weeks of CDAHFD treatment, mice were orally administrated L-lysine (150 mM), Nε-Methyl-L-lysine (150 mM) (100 ul/mouse/Day) or vehicle (water; 100 ul/mouse/Day) for 14 days with continuing CDAHFD treatment. Bodyweight was measured weekly. After sacrifice, the serum of mice was collected and stored at −80° ° C. The serum levels of aspartate aminotransferase (AST) and alanine aminotransferase (ALT) were measured with biochemistry slides for a chemistry analyzer (FUJI DRI-CHEM 4000i, Fujifilm Corporation, Japan). For hepatic fibrosis staining, the 5 μm FFPE liver sections were deparaffinated and stained with a Trichrome staining kit according to the manufacturer's instructions.
8-weeks old male C57BL/6 mice are fed with a choline-deficient, L-amino acid-define, high-fat diet (CDAHFD) (Research Diet, Inc. […]) for 4 weeks to induce NASH and liver fibrosis. During the third and fourth week of CDAHFD treatment, it is orally administered Nε-Methyl-L-lysine (100 μg Nε-Methyl-L-lysine/g body weight/per day) into mice for fourteen days. […] Data are presented as mean±SEM. Kruskal-Wallis test is used in FIG. 4 (a and b) Mann-Whitney t-tests are used in FIG. 4 (c and d) to indicate significant differences between groups. *P<0.05. *P<0.005. *P<0.0005. *P<0.00005.

[3] = system: differentiated 3T3-L1 adipocytes; test: Cell differentiation experiment: Oil Red-O lipid staining and Ucp1 qPCR; type: cell-based; conditions: 150 μM
Protocol: The differentiation of 3T3-L1 cells was performed by using 3T3-L1 DIFFERENTIATION KIT (DIF001, Merck). After differentiation, cells were maintained in a complete medium containing […] Nε-Methyl-L-lysine and vehicle control for 7 days before the harvest. After treatments, cells were subjected to RNA extraction and qPCR analysis of Ucp1 and Cpt1b mRNA expression. For quantifying the lipid accumulation in cells, cells were fixed with in 4% neutral-buffered formalin and stained with Oil Red-O reagent.
FIG. 5 illustrates a method of using Nε-Methyl-L-lysine to inhibit lipid storage and promote adipose browning in differentiated 3T3-L1 adipocytes in accordance with some embodiments. 3T3-L1 cells (SP-L1-F) are purchased from a commercial available source. It is maintained and differentiated 3T3-L1 preadipocytes. After differentiation, differentiated 3T3-L1 adipocytes are treated by post-differentiation medium containing vehicle (H2O) or Nε-Methyl-L-lysine (150 μM). […] Data are collected from three independent experiments (FIGS. 5a and 5b) and presented as mean±SEM. Mann-Whitney t-tests are used to indicate significant differences between groups. *P<0.05. **P<0.01. ****P<0.0001.

Ucp1 and Cpt1b = test: qRT-PCR of browning marker gene Ucp1 and beta-oxidation gene Cpt1b in white adipose tissue of treated mice; type: in vivo, male C57BL/6J mice; conditions: perigonadal adipose tissue, 14 days after oral treatment, qPCR, vs vehicle
Protocol: (§2) 14 days after treatment, the L-lysine (150 mM), Nε-Methyl-L-lysine (150 mM) (100 ul/mouse/Day) or vehicle (water; 100 ul/mouse/Day) treated mice were sacrificed and the perigonadal white adipose tissue (pWAT) and inguinal white adipose tissue (iWAT) were collected and weighted for measuring the reducing effects of L-lysine, Nε-Methyl-L-lysine and vehicle. To test the browning-activating abilities of L-lysine, Nε-Methyl-L-lysine and vehicle control in pWAT and iWAT of treated mice, total RNA of WAT was extracted by using RNeasy Lipid Tissue kits. The concentration and quality of RNA were measured by NanoDrop spectrophotometer. For qRT-PCR analysis of browning marker gene Ucp1 and beta-oxidation gene Cpt1b, complementary DNA was obtained by using M-MLV Reverse Transcriptase with oligo-dT primers. qRT-PCR was performed with SYBR-green master on a MyGo Pro PCR system.
Beiging and β-oxidation are two major fat-burning mechanism of white adipose tissues controlled by the expression of Ucp-1 and CPT-1 gene respectively. […] It is orally administered Nε-Methyl-L-lysine (100 μg Nε-Methyl-L-lysine/g body weight/per day) into eight weeks old male C57/BL6 mice for fourteen days. 14 days after treatment, perigonadal adipose tissues of vehicle (H2O) treated mice and Nε-Methyl-L-lysine treated mice are collected for qPCR analyses. […] Data are presented as mean±SEM. Mann-Whitney t-tests are used to indicate significant differences between groups. *P<0.05.

[4] = system: perigonadal white adipose tissue (pWAT) and inguinal white adipose tissue (iWAT); test: Adipose tissues reducing experiment: 14-day oral administration to chow diet-fed mice, body weight and pWAT/iWAT mass; type: in vivo, male C57BL/6J mice; conditions: chow diet-fed male mice, fourteen days
Protocol: To test the browning-activating and WAT-reducing abilities of Nε-Methyl-L-lysine, 8-week-old male C57BL/6J mice were orally administrated of L-lysine (150 mM), Nε-Methyl-L-lysine (150 mM) (100 ul/mouse/Day) or vehicle (water; 100 ul/mouse/Day) for 14 days.
as §2
FIG. 6 illustrates a method of using Nε-Methyl-L-lysine to reduce the total mass of subcutaneous and perigonadal white adipose tissues without reducing total body weight. It is orally administered Nε-Methyl-L-lysine (100 μg Nε-Methyl-L-lysine/g body weight/per day, body weights before treatment, body weights 7 days after treatment, body weights 14 days after treatment) into eight weeks old male C57/BL6 mice for fourteen days. […] Data are presented as mean±SEM and significance is calculated by one-way ANOVA followed by Tukey's multiple comparison test. *P<0.05. **P<0.01.

gut microbiota = test: Gut microbiota control experiment (14-day oral administration); type: in vivo, male C57/BL6 mice
Protocol: 14 days after treatment, the fecal pellets of L-lysine (150 mM), Nε-Methyl-L-lysine (150 mM) (100 ul/mouse/Day) or vehicle (water; 100 ul/mouse/Day) treated mice were collected for DNA extraction. PCR amplification was performed on extracted DNA for 16s rDNA amplicons by using the primers targeting the V3-V4 region (primer set: 341F-805R). 16s rRNA amplicons were sequenced on an Illumina Miseq platform and generated 300 bp paired-end reads. Raw data were obtained with barcodes sequences cleaned up. The sequencing data was analyzed using the QIIME 2 platform (version: 2020.8).
It is orally administered Nε-Methyl-L-lysine (100 μg Nε-Methyl-L-lysine/g body weight/per day) into eight weeks old male C57/BL6 mice for fourteen days. Fourteen days after treatment, perigonadal adipose tissues of vehicle (H2O) treated mice and Nε-Methyl-L-lysine treated mice were collected for qPCR analyses. […] Data are presented as mean±SEM. Mann-Whitney t-tests are used to indicate significant differences between groups. *P<0.05.

[5] = CDAHFD 4 weeks, oral treatment during third and fourth week
[6] = 100 μg/g body weight/per day oral, fourteen days, vs vehicle

Cl.O=C1/C(=C/c2ccccc2)C(NC2CCCCC2)c2ccccc21 (mixture of isomers) [(E/Z)-BCI hydrochloride]
abundance of Lachospiraceae bacterium, Marvinbryantia uncultured bacterium, Peptococcaceae uncultured bacterium, Bifidobacterium pseudolongum and Gordonnibacter uncultured bacterium (DUSP6 / cold microbiota): significantly regulates the abundance

CNCCCC[C@H](N)C(=O)O [Nε-Methyl-L-lysine]
mean adipocyte area and distribution of adipocyte size of pWAT and iWAT ([1]; Adiposoft software): significantly reduced
adipocyte size in iWAT (histological examination) ([1]; H&E sections): significantly reduced adipocyte size
adipocyte size in pWAT (histological examination) ([1]; H&E sections): significantly reduced adipocyte size
serum ALT level, CDAHFD compared with chow-diet fed mice [2, 5]: significantly increased
reducing AST/ALT ratio, compared with lysine ([2]; mice fed with a CDAHFD): better effect than lysine
reducing serum AST level, compared with lysine ([2]; mice fed with a CDAHFD): better effect than lysine
liver lipid droplets ([2]; mice fed with a CDAHFD, oral 14 days): promising effect on reducing
liver fibrosis ([2]; mice fed with a CDAHFD, oral 14 days, trichrome stain): promising effect on reducing
lipid storage (oil-red O staining) ([3]; vs vehicle (H2O)): significantly reduce lipid storage
browning marker Ucp-1 expression ([3]; vs vehicle-treated cells): significantly induce
expression of Cpt1b (β-oxidation marker gene) in pWAT (Ucp1 and Cpt1b): significantly induced the expression
expression of Ucp-1 (browning marker gene) in pWAT (Ucp1 and Cpt1b): significantly induced the expression
expression of Cpt1b (β-oxidation marker gene) in pWAT (Ucp1 and Cpt1b; listed as Nε-Methyl−1-lysine): enhanced the expression
expression of Ucp-1 (browning marker gene) in pWAT (Ucp1 and Cpt1b; listed as Nε-Methyl−1-lysine): enhanced the expression
sensitivity of visceral pWAT versus subcutaneous iWAT to the substance [4]: higher sensitivity
total mass of iWAT (subcutaneous white adipose tissues) [4]: dramatically reduced
total mass of pWAT (perigonadal white adipose tissues) [4]: dramatically reduced
body weight ([4]; 150 mM 100 ul/mouse/Day (100 μg/g body weight/per day), vs vehicle or L-lysine): did not significantly change the body weight; also recorded: did not change the mice body weights
number of bacteria classified in the Actinobacteria phylum in gut (gut microbiota; [6]): capable of increasing the number
number of bacteria classified in the Bacilli class in gut (gut microbiota; [6]): capable of increasing the number
number of bacteria classified in the Bacteroidia phylum in gut (gut microbiota; [6]): capable of increasing the number
number of bacteria classified in the Bifidobacterium genus in gut (gut microbiota; [6]): capable of increasing the number
number of bacteria classified in the Coriobacteriia class in gut (gut microbiota; [6]): capable of increasing the number
number of bacteria classified in the Lactobacillus genus in gut (gut microbiota; [6]): capable of increasing the number
number of bacteria classified in the Saccharimonadia class in gut (gut microbiota; [6]): capable of increasing the number
number of bacteria classified in the Verrucomicrobiota phylum in gut (gut microbiota; [6]): capable of increasing the number
total bacterial load (gut microbiota; [6]): capable of increasing the total bacterial load
number or relative percentage of Akkernmansia muciniphilla in gut (gut microbiota; FIG. 8j): increase the number or relative percentage

NCCCC[C@H](N)C(=O)O [L-lysine]
serum ALT level, CDAHFD compared with chow-diet fed mice [2, 5]: significantly increased
serum AST level, CDAHFD compared with chow-diet fed mice [2, 5]: significantly increased
total mass of iWAT (subcutaneous white adipose tissues) [4]: did not show significant effects
total mass of pWAT (perigonadal white adipose tissues) [4]: did not show significant effects

From patent publication US12156859B2, “Methods of and compositions for treating obesity, obesity-related diseases or cancers using a N6-methyllysine/l-lysine mixture” (Tainnovation Inc, priority 2021, dated 2024)
